Like-named read-outs stand apart in the source and are kept apart here.
Test system: NHACs
Test: calcium flux assay
Format: cell-based, human
Conditions: for Emax: read-out: (A) % Efficacy
Description: NHACs were plated in 1536 Greiner plate at 2000 cells/well in 4 ul volume. 24 hours later, 4 ul of Calcium 5 dye solution (Hank's Balanced Salt/HEPES buffer containing 5 mM of Probenecid) was then added and incubated for 1 hour at room temperature. Fluorescence readings at excitation wavelength of 470-495 nm and emission wavelength of 515-575 nm were done using FLIPR high-throughput screening system (Molecular Devices, Sunnyvale, CA). The test compound was then added to each well at the indicated dose. Signal was measured prior compound dispense and after using a first interval of 1 second for 60 reads and second interval of 3 second for 20 reads. Data was analyzed using Molecular Devices ScreenWorks® Software.

Compound	EC50 (Homo sapiens)	Emax (Homo sapiens)	(A) % Efficacy	EC50
O=C(Nc1ccc(Cl)c(Cl)c1)[C@@H]1[C@H]2O[C@H]([C@@H]3C[C@@H]32)[C@H]1c1ccnc(F)c1F (single isomer, unassigned) [Example 122b]	17 µM	217%	–	–
O=C(Nc1ccc(Cl)c(Cl)c1)[C@H]1[C@@H]2O[C@@H]([C@H]3C[C@H]32)[C@@H]1c1cncnc1 (single isomer, unassigned) [Example 126a]	5.4 µM	233%	–	–
COc1ccc(NC(=O)[C@H]2[C@H]3O[C@H]([C@@H]4C[C@@H]43)[C@H]2c2ccc(C)nc2)cn1 [Example 3, (1R,2R,4S,5S,6R,7R)-N-(6-methoxypyridin-3-yl)-7-(6-methylpyridin-3-yl)-8-oxatricyclo[3.2.1.0^2,4]octane-6-carboxamide]	> 50 µM	0%	–	–
Cc1cc([C@H]2[C@H]3O[C@H](C[C@@H]3O)[C@H]2C(=O)Nc2cnc(Cl)c(Cl)c2)ccn1 [Example 6, (1R,2S,3S,4R,5S)-N-(5,-6-dichloropyridin-3-yl)-5-hydroxy-3-(2-methylpyridin-4-yl)-7-oxabicyclo[2.2.1]heptane-2-carboxamide]	–	–	17%	> 50 µM
O=C(Nc1cccc(C(F)(F)F)c1)[C@@H]1[C@@H]2O[C@@H](C[C@H]2O)[C@@H]1c1ccncc1 [Example 12, (1S,2S,3S,4S,6R)-6-hydroxy-3-(pyridin-4-yl)-N-[3-(trifluoromethyl)phenyl]-7-oxabicyclo[2.2.1]heptane-2-carboxamide]	> 50 µM	22%	–	–
Cc1cc([C@H]2[C@H]3O[C@H]([C@@H]4C[C@@H]43)[C@H]2C(=O)Nc2cccc(C(F)(F)F)c2)ccn1 [Example 26, (1S,2S,4R,5R,6S,7S)-7-(2-methylpyridin-4-yl)-N-[3-(trifluoromethyl)phenyl]-8-oxatricyclo[3.2.1.0^2,4]octane-6-carboxamide]	23 µM	54%	–	–
COc1ccc(NC(=O)[C@@H]2[C@@H]3O[C@@H]([C@H]4C[C@H]43)[C@@H]2c2ccc(C)nc2)cn1 [Example 31, (1S,2S,4R,5R,6S,7S)-N-(6-methoxypyridin-3-yl)-7-(6-methylpyridin-3-yl)-8-oxatricyclo[3.2.1.0^2,4]octane-6-carboxamide]	> 50 µM	0%	–	–
O=C(Nc1cnc(Cl)c(Cl)c1)[C@@H]1[C@@H]2O[C@@H]([C@H]3C[C@H]32)[C@@H]1c1ccnc(F)c1F [Example 32, (1S,2S,4R,5R,6S,7S)—N-(5,6-dichloropyridin-3-yl)-7-(2,3-difluoropyridin-4-yl)-8-oxatricyclo[3.2.1.0^2,4]octane-6-carboxamide]	13 µM	143%	–	–
COc1ccc(NC(=O)[C@@H]2[C@@H]3O[C@@H]([C@H]4C[C@H]43)[C@@H]2c2ccncc2)cn1 [Example 33, (1S,2S,4R,5R,6S,7S)—N-(6-methoxypyridin-3-yl)-7-(pyridin-4-yl)-8-oxatricyclo[3.2.1.0^2,4]octane-6-carboxamide]	4.6 µM	49%	–	–
COc1ccc(NC(=O)[C@@H]2[C@@H]3O[C@@H]([C@H]4C[C@H]43)[C@@H]2c2ccnc(F)c2F)cn1 [Example 34, (1S,2S,4R,5R,6S,7S)-7-(2,3-difluoropyridin-4-yl)-N-(6-methoxypyridin-3-yl)-8-oxatricyclo[3.2.1.0^2,4]octane-6-carboxamide]	> 50 µM	3%	–	–
COc1ccc(NC(=O)[C@@H]2[C@@H]3O[C@@H]([C@H]4C[C@H]43)[C@@H]2c2cccc(C(F)(F)F)n2)cn1 [Example 35, (1S,2S,4R,5R,6S,7S)—N-(6-methoxypyridin-3-yl)-7-(6-(trifluoromethyl)pyridin-2-yl)-8-oxatricyclo[3.2.1.0^2,4]octane-6-carboxamide]	> 50 µM	0%	–	–

More lines, main results first:

EC50 (Homo sapiens)	Compound	Emax (Homo sapiens)	(A) % Efficacy	EC50
> 50 µM	Cc1cc([C@H]2[C@@H]3C[C@@H](O)C(O3)[C@H]2C(=O)Nc2cccc(C(F)(F)F)c2)ccn1 (stereo in doubt) [Example 9, (1R,2S,3S,4S,6R)-6-hydroxy-3-(2-methylpyridin-4-yl)-N-[3-(trifluoromethyl)phenyl]-7-oxabicyclo[2.2.1]heptane-2-carboxamide]	0%	–	–
3.4 µM	COc1cc([C@H]2[C@H]3O[C@H]([C@@H]4C[C@@H]43)[C@H]2C(=O)Nc2cnc(Cl)c(Cl)c2)ccn1 [Example 1, (1S,2S,4R,5R,6S,7S)—N-(5,6-dichloropyridin-3-yl)-7-(2-methoxypyridin-4-yl)-8-oxatricyclo[3.2.1.0^2,4]octane-6-carboxamide]	164%	–	–
> 50 µM	Cc1cc([C@H]2[C@H]3O[C@H](C[C@@H]3O)[C@H]2C(=O)Nc2cc(Cl)c(Cl)cn2)ccn1 [Example 4, (1R,2S,3S,4R,5S)-N-(4,5-dichloropyridin-2-yl)-5-hydroxy-3-(2-methylpyridin-4-yl)-7-oxabicyclo[2.2.1]heptane-2-carboxamide]	28%	–	–
> 50 µM	Cc1cc([C@H]2[C@H]3O[C@H](C[C@@H]3O)[C@H]2C(=O)Nc2cnc(C)c(Cl)c2)ccn1 [Example 5, (1R,2S,3S,4R,5S)-N-(5-chloro-6-methylpyridin-3-yl)-5-hydroxy-3-(2-methylpyridin-4-yl)-7-oxabicyclo[2.2.1]heptane-2-carboxamide]	18%	–	–
4.5 µM	Cc1cc([C@H]2[C@H]3O[C@H](C[C@H]3F)[C@H]2C(=O)Nc2ccc(Cl)c(Cl)c2)ccn1 [Example 13, (1R,2S,3S,4R,5R)-N-(3,4-dichlorophenyl)-5-fluoro-3-(2-methylpyridin-4-yl)-7-oxabicyclo[2.2.1]heptane-2-carboxamide]	68%	–	–
8.3 µM	COc1ccc(NC(=O)[C@H]2[C@@H](c3ccnc(C)c3)[C@H]3O[C@@H]2C[C@H]3F)cn1 [Example 14, (1R,2S,3S,4R,5R)-5-fluoro-N-(6-methoxypyridin-3-yl)-3-(2-methylpyridin-4-yl)-7-oxabicyclo[2.2.1]heptane-2-carboxamide]	115%	–	–
> 50 µM	Cc1cc([C@H]2[C@H]3O[C@H](C[C@H]3F)[C@H]2C(=O)Nc2cccc(C(F)(F)F)c2)ccn1 [Example 15, (1R,2S,3S,4R,5R)-5-fluoro-3-(2-methylpyridin-4-yl)-N-[3-(trifluoromethyl)phenyl]-7-oxabicyclo[2.2.1]heptane-2-carboxamide]	0%	–	–
21 µM	Cc1cc([C@H]2[C@H]3O[C@H](C[C@@H]3F)[C@H]2C(=O)Nc2ccc(Cl)c(Cl)c2)ccn1 [Example 16, (1R,2S,3S,4R,5S)-N-(3,4-dichlorophenyl)-5-fluoro-3-(2-methylpyridin-4-yl)-7-oxabicyclo[2.2.1]heptane-2-carboxamide]	105%	–	–
> 50 µM	Cc1cc([C@H]2[C@H]3O[C@H](C[C@@H]3F)[C@H]2C(=O)Nc2cccc(C(F)(F)F)c2)ccn1 [Example 17, (1R,2S,3S,4R,5S)-5-fluoro-3-(2-methylpyridin-4-yl)-N-[3-(trifluoromethyl)phenyl]-7-oxabicyclo[2.2.1]heptane-2-carboxamide]	0%	–	–
> 50 µM	Cc1cc([C@H]2[C@H]3O[C@H](C[C@@H]3F)[C@H]2C(=O)Nc2cnc(Cl)c(Cl)c2)ccn1 [Example 18, (1R,2S,3S,4R,5S)-N-(5,6-dichloropyridin-3-yl)-5-fluoro-3-(2-methylpyridin-4-yl)-7-oxabicyclo[2.2.1]heptane-2-carboxamide]	0%	–	–
25 µM	COc1cc([C@H]2[C@H]3O[C@H](C[C@@H]3F)[C@H]2C(=O)Nc2ccc(Cl)c(Cl)c2)ccn1 [Example 19, (1R,2S,3S,4R,5S)-N-(3,4-dichlorophenyl)-5-fluoro-3-(2-methoxypyridin-4-yl)-7-oxabicyclo[2.2.1]heptane-2-carboxamide]	258%	–	–
> 50 µM	Nc1ncc([C@H]2[C@H]3O[C@H](C[C@@H]3F)[C@H]2C(=O)Nc2ccc(Cl)c(Cl)c2)cn1 [Example 20, (1R,2S,3S,4R,5S)-3-(2-aminopyrimidin-5-yl)-N-(3,4-dichlorophenyl)-5-fluoro-7-oxabicyclo[2.2.1]heptane-2-carboxamide]	5%	–	–
27 µM	Cc1ccc([C@H]2[C@H]3O[C@H](C[C@@H]3F)[C@H]2C(=O)Nc2ccc(Cl)c(Cl)c2)cn1 [Example 21, (1R,2S,3S,4R,5S)-N-(3,4-dichlorophenyl)-5-fluoro-3-(6-methylpyridin-3-yl)-7-oxabicyclo[2.2.1]heptane-2-carboxamide]	159%	–	–
4.2 µM	O=C(Nc1ccc(Cl)c(Cl)c1)[C@H]1[C@@H](c2ccnc(F)c2)[C@H]2O[C@@H]1C[C@@H]2F [Example 22, (1R,2S,3S,4R,5S)-N-(3,4-dichlorophenyl)-5-fluoro-3-(2-fluoropyridin-4-yl)-7-oxabicyclo[2.2.1]heptane-2-carboxamide]	128%	–	–
11 µM	COc1cc([C@H]2[C@H]3O[C@H]([C@@H]4C[C@@H]43)[C@H]2C(=O)Nc2ccc(Cl)c(Cl)c2)ccn1 [Example 24, (1S,2S,4R,5R,6S,7S)-N-(3,4-dichlorophenyl)-7-(2-methoxypyridin-4-yl)-8-oxatricyclo[3.2.1.0^2,4]octane-6-carboxamide]	71%	–	–
17 µM	O=C(Nc1ccc(Cl)c(Cl)c1)[C@@H]1[C@@H]2O[C@@H]([C@H]3C[C@H]32)[C@@H]1c1ccnc(F)c1 [Example 25, (1S,2S,4R,5R,6S,7S)-N-(3,4-dichlorophenyl)-7-(2-fluoropyridin-4-yl)-8-oxatricyclo[3.2.1.0^2,4]octane-6-carboxamide]	52%	–	–
8.6 µM	O=C(Nc1ccc(Cl)c(Cl)c1)[C@@H]1[C@@H]2O[C@@H]([C@H]3C[C@H]32)[C@@H]1c1cnc(F)nc1 [Example 36, (1S,2S,4R,5R,6S,7S)—N-(3,4-dichlorophenyl)-7-(2-fluoropyrimidin-5-yl)-8-oxatricyclo[3.2.1.0^2,4]octane-6-carboxamide]	124%	–	–

Source: US12209096B2, “Compounds and compositions for inducing chondrogenesis” (NOVARTIS AG, priority 2017, dated 2025)
